Reference: patent US10696651B2, “Heterocyclic compound” (Takeda Pharmaceutical Company Limited, priority 2016, dated 2020)
Where a name gives a salt, the structure may show the parent alone. Read-outs that look alike come from different tables or passages of the source.

Assays:
[1] = tested on: osteosarcoma cell line U-2-OS; assay: In vitro cell proliferation inhibition assay (CellTiter-Glo, low amino acid media); type: cell-based; details: McCoy's 5A low amino acid media; for inhibition at 0.1 µM: Homo sapiens, U2OS, 72 h, cell proliferation inhibitory rate; for inhibitory rate: 72 hr
Method: A cell suspension (40 μL) (1000 cells/well) of osteosarcoma cell line U-2-OS obtained from ATCC (American Type Culture Collection) was seeded on a 384 plate using McCoy's 5A low amino acid media (amino acid content 25%). The seeded cells were incubated (37° C., 5% CO2) overnight to 24 hr at the longest. Each example compound was dissolved (10 mM) in DMSO, delivered to wells by using TECAN HP D300 (TECAN), and the plate was incubated for 72 hr (37° C., 5% CO2). A well without addition of compound was treated similarly as a control group. Celltiter-Glo (registered trade mark) Luminescent Cell Viability Assay reagent (Promega KK) equilibrated at room temperature was added (40 μL/well) to cells in each well before compound treatment (untreated group) and 72 hours after compound treatment. After incubation for 10 min, cell proliferation inhibitory rate was measured by the amount of ATP which is a cell viability marker. Luminescence of cells showing ATP amount was measured using ARVO MX (PerkinElmer). Based on the luminescence values of the untreatment group, the control group without addition of Example compound solution, and the treatment group with addition of Example compound, the cell proliferation inhibitory rate (%) of the test compound at a compound concentration of 100 nM was calculated by the following formula and the results thereof are shown in Tables 4-1, 4-2. Inhibitory rate (%)=(1−(luminescence value of treatment group−luminescence value of untreatment group)÷(luminescence value of control group−luminescence value of untreatment group))×100

[2] = biological target: T1, human GCN2 full-length protein (Homo sapiens, UniProt Q9P2K8); assay: GCN2 enzyme inhibition assay (LanthaScreen TR-FRET); type: biochemical; details: GCN2 enzyme inhibitory activity at compound concentration of 3 μM; for inhibition at 3 µM: read-out: inhibitory rate; for inhibitory rate: 3 µM
T1 construct: purchased Carna Biosciences, Inc
Summary of the method: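 Full-length human GCN2 was preincubated with compound for 1 hr at room temperature, then reacted for 1 hr with substrate and ATP added from a 570 μM ATP / 390 nM substrate solution (stock concentrations). Phosphorylation was detected by TR-FRET with a terbium-labelled anti-eIF2alpha antibody after 1 hr, with enzyme-free wells as control.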

T1 sequence (Q9P2K8 whole entry): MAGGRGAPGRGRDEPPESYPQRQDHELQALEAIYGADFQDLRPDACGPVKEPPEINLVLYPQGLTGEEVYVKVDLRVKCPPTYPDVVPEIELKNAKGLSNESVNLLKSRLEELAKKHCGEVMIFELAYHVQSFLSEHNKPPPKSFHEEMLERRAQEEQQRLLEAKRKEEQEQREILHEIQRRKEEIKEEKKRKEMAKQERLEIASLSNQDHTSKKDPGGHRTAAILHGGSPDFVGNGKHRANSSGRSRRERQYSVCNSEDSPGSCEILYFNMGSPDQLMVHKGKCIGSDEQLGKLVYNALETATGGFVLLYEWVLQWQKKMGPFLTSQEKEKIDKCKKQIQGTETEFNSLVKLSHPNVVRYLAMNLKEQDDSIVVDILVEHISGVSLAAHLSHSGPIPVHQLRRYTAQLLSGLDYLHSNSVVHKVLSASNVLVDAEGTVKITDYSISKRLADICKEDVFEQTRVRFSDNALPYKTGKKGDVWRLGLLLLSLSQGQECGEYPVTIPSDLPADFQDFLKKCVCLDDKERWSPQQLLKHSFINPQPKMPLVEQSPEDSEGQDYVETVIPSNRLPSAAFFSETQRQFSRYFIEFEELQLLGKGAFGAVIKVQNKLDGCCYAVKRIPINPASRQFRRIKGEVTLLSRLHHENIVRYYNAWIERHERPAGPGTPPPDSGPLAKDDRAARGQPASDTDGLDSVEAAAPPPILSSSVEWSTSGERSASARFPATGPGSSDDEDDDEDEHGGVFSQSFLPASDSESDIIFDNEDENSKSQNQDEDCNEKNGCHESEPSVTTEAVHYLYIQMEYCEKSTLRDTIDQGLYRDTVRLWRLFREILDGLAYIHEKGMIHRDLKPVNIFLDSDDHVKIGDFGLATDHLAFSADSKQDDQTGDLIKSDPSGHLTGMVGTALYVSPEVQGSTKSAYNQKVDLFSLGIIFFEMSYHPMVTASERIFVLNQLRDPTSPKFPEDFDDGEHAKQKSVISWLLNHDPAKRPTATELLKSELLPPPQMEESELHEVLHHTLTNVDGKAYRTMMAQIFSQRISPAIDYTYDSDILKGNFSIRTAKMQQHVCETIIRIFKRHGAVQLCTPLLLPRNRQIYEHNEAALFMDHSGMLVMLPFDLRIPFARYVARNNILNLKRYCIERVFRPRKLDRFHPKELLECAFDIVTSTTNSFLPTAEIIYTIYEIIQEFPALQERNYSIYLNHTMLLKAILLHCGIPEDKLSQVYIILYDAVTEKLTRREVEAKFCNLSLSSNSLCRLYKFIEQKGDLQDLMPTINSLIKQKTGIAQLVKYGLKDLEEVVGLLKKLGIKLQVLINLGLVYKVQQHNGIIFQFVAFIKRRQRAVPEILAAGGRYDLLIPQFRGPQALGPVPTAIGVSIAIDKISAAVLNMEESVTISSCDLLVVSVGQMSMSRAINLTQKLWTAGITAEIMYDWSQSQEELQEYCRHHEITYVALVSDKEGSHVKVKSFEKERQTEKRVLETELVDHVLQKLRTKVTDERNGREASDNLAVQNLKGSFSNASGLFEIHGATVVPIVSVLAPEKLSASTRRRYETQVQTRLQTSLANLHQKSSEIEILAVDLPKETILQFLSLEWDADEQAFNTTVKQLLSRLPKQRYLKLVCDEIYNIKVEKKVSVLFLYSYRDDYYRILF

Compound	inhibition at 0.1 µM ([1]; Table 4-2)	inhibition at 3 µM ([2]; Table 3-2)	further results
COc1c(CO)cc(Cl)cc1S(=O)(=O)Nc1ccc(F)c(C#Cc2cnc(N)nn2)c1F [Example 130, N-(3-((3-amino-1,2,4-triazin-6-yl)ethynyl)-2,4-difluorophenyl)-5-chloro-3-(hydroxymethyl)-2-methoxybenzenesulfonamide]	68%	99%	
COc1c(CO)cc(Cl)cc1S(=O)(=O)Nc1ccc(F)c(C#Cc2cnc(N[C@H]3CC[C@H](O)CC3)nc2)c1F [Example 153, 5-chloro-N-(2,4-difluoro-3-((2-((trans-4-hydroxycyclohexyl)amino)pyrimidin-5-yl)ethynyl)phenyl)-3-(hydroxymethyl)-2-methoxybenzenesulfonamide]	78%	99%	
O=S(=O)(Nc1ccc(F)c(C#Cc2cnc3[nH]ncc3c2)c1F)c1cccc(Cl)c1Cl [Example 38, 2,3-dichloro-N-(2,4-difluoro-3-(1H-pyrazolo[3,4-b]pyridin-5-ylethynyl)phenyl)benzenesulfonamide TFA Salt]			inhibition at 0.1 µM ([1]; Table 4-1): 22%; inhibition at 3 µM ([2]; Table 3-1): 99%
Nc1ncc(C#Cc2c(F)ccc(NS(=O)(=O)c3cc(Cl)cn4c(Cl)cnc34)c2F)cn1 [Example 165, N-(3-((2-aminopyrimidin-5-yl)ethynyl)-2,4-difluorophenyl)-3,6-dichloroimidazo[1,2-a]pyridine-8-sulfonamide]	27%	96%	
O=S(=O)(Nc1ccc(F)c(C#Cc2cnc3[nH]ncc3c2)c1F)c1cc(Cl)ccc1Cl [Example 10, 2,5-dichloro-N-(2,4-difluoro-3-(1H-pyrazolo[3,4-b]pyridin-5-ylethynyl)phenyl)benzenesulfonamide TFA Salt]			inhibitory rate ([1]; Table 4-1, TFA Salt): 63%; inhibition at 3 µM ([2]; Table 3-1): 99%
Cc1ncc(Cl)cc1S(=O)(=O)Nc1ccc(F)c(C#Cc2cnc(N[C@H]3CC[C@H](O)CC3)nc2)c1F [Example 188, 5-chloro-N-(2,4-difluoro-3-((2-((trans-4-hydroxycyclohexyl)amino)pyrimidin-5-yl)ethynyl)phenyl)-2-methylpyridine-3-sulfonamide]	77%	100%	
O=S(=O)(Nc1ccc(F)c(C#Cc2cnc(N[C@H]3CC[C@H](O)CC3)nc2)c1F)c1cc(Cl)cc2c1OCC2O (stereo partly drawn) [Example 190, 5-chloro-N-(2,4-difluoro-3-((2-((trans-4-hydroxycyclohexyl)amino)pyrimidin-5-yl)ethynyl)phenyl)-3-hydroxy-2,3-dihydro-1-benzofuran-7-sulfonamide]			inhibitory rate ([1]; Table 4-2): 65%; inhibitory rate ([2]; Table 3-2): 99%
O=S(=O)(Nc1ccc(F)c(C#Cc2cnc(NC3COC3)nc2)c1F)c1cc(Cl)cc(CO)c1Cl [Example 181, 2,5-dichloro-N-(2,4-difluoro-3-((2-(oxetan-3-ylamino)pyrimidin-5-yl)ethynyl)phenyl)-3-(hydroxymethyl)benzenesulfonamide]	80%	102%	
Cc1ncc(Cl)cc1S(=O)(=O)Nc1ccc(F)c(C#Cc2cnc(N)nn2)c1F [Example 158, N-(3-((3-amino-1,2,4-triazin-6-yl)ethynyl)-2,4-difluorophenyl)-5-chloro-2-methylpyridine-3-sulfonamide]	43%	99%	
COc1c(CO)cc(Cl)cc1S(=O)(=O)Nc1ccc(F)c(C#Cc2cnc(NC3CC3)nn2)c1F [Example 168, 5-chloro-N-(3-((3-(cyclopropylamino)-1,2,4-triazin-6-yl)ethynyl)-2,4-difluorophenyl)-3-(hydroxymethyl)-2-methoxybenzenesulfonamide]	57%	99%	
Nc1ncc(C#Cc2c(F)ccc(NS(=O)(=O)c3cc(Cl)cnc3OC(F)F)c2F)cn1 [Example 162, N-(3-((2-aminopyrimidin-5-yl)ethynyl)-2,4-difluorophenyl)-5-chloro-2-(difluoromethoxy)pyridine-3-sulfonamide]	35%	99%	
COc1ncc(Cl)cc1S(=O)(=O)Nc1ccc(F)c(C#Cc2cnc(N[C@H](C)CO)nc2)c1F [Example 175, 5-chloro-N-(2,4-difluoro-3-((2-(((2R)-1-hydroxypropan-2-yl)amino)pyrimidin-5-yl)ethynyl)phenyl)-2-methoxypyridine-3-sulfonamide]	75%	99%	
Cc1ccc(Cl)cc1S(=O)(=O)Nc1ccc(F)c(C#Cc2cnc3[nH]ncc3c2)c1F [Example 15, 5-chloro-N-(2,4-difluoro-3-(1H-pyrazolo[3,4-b]pyridin-5-ylethynyl)phenyl)-2-methylbenzenesulfonamide]			inhibition at 0.1 µM ([1]; Table 4-1): 75%; inhibition at 3 µM ([2]; Table 3-1): 100%
O=S(=O)(Nc1ccc(F)c(C#Cc2cnc(N[C@H]3CC[C@H](O)CC3)nc2)c1F)c1cc(Cl)cc2c1OCC2O (stereo partly drawn) [Example 191, 5-chloro-N-(2,4-difluoro-3-((2-((trans-4-hydroxycyclohexyl)amino)pyrimidin-5-yl)ethynyl)phenyl)-3-hydroxy-2,3-dihydro-1-benzofuran-7-sulfonamide]			inhibitory rate ([1]; Table 4-2): 74%; inhibitory rate ([2]; Table 3-2): 99%
Cc1ncc(Cl)cc1S(=O)(=O)Nc1ccc(F)c(C#Cc2cnc(N[C@H](C)CO)nc2)c1F [Example 189, 5-chloro-N-(2,4-difluoro-3-((2-(((2R)-1-hydroxypropan-2-yl)amino)pyrimidin-5-yl)ethynyl)phenyl)-2-methylpyridine-3-sulfonamide]	79%	99%	
O=S(=O)(Nc1ccc(F)c(C#Cc2cnc(NC3COC3)nn2)c1F)c1cc(Cl)cc(CO)c1Cl [Example 179, 2,5-dichloro-N-(2,4-difluoro-3-((3-(oxetan-3-ylamino)-1,2,4-triazin-6-yl)ethynyl)phenyl)-3-(hydroxymethyl)benzenesulfonamide]	75%	102%	
CNc1ncc(Cl)cc1S(=O)(=O)Nc1ccc(F)c(C#Cc2cnc(N[C@H](C)CO)nc2)c1F [Example 183, 5-chloro-N-(2,4-difluoro-3-((2-(((2R)-1-hydroxypropan-2-yl)amino)pyrimidin-5-yl)ethynyl)phenyl)-2-(methylamino)pyridine-3-sulfonamide]	77%	103%	
COc1c(CO)cc(Cl)cc1S(=O)(=O)Nc1ccc(F)c(C#Cc2cnc(N[C@H](C)CO)nc2)c1F [Example 150, 5-chloro-N-(2,4-difluoro-3-((2-(((2R)-1-hydroxypropan-2-yl)amino)pyrimidin-5-yl)ethynyl)phenyl)-3-(hydroxymethyl)-2-methoxybenzenesulfonamide]	77%	99%	
